The record followed here is ChEMBL document CHEMBL1201862, “PubChem BioAssay data set” (2004).

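Compound exposure: 48 hours, 5 concentrations, 96-well plates. GI50: concentration for 50% inhibition of growth.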 Activity calls are given as the source filed them. No stated cut-off is given here; in the data, active = GI50 up to about 1.1 µM and inactive = higher.

Test systems include Hs-578T; SW-620; MDA-MB-435; SK-MEL-2; MDA-MB-231; SK-MEL-28; OVCAR-5; NCI-H226; UACC-257; ACHN; SK-MEL-5; RXF 393; DU-145; SNB-19; K562; MCF7; LOX IMVI; KM12; TK-10; OVCAR-8.
Experiment in all cases: NCI-60 cell line screen, 48 h

As for `Cn1c2cc(Cl)ccc2c2ccc3c(c21)C(=O)C=CC3=O`, the GI50 in the experiment on Hs-578T was 46.9 µM (inactive); with SW-620, 4.4 µM (inactive); in the experiment with MDA-MB-435 it was 25.4 µM (inactive); with SK-MEL-2, 33.3 µM (inactive); with MDA-MB-231 it was 26.9 µM (inactive); in the experiment with SK-MEL-28, 25.3 µM (inactive). Also, the GI50 in the experiment on OVCAR-5 is 86.5 µM (inactive); with NCI-H226 it was > 100 µM (inactive); in the experiment with UACC-257, 26.4 µM (inactive); with ACHN, 16.8 µM (inactive); with SK-MEL-5, 39.8 µM (inactive); in the experiment with RXF 393 it was 21.1 µM (inactive). Also, the GI50 was > 57 µM (inactive) with DU-145; > 100 µM (inactive) in the experiment on SNB-19; 3.4 µM (inactive) with K562; 13.8 µM (inactive) in the experiment with MCF7; 42.5 µM (inactive) with LOX IMVI; > 100 µM (inactive) with KM12. For the same compound, the results for the GI50 in the experiment on TK-10 and in the experiment on OVCAR-8 were 26.9 µM (inactive) and 28.3 µM (inactive), respectively.

In the case of `N#CC1=C(N)OC2=C(CCCc3ccc([N+](=O)[O-])cc32)C1c1ccccc1` (stereo unspecified), the GI50 with Hs-578T was 15.9 µM (inactive); with SW-620, 3.63 µM (inactive); with MDA-MB-435 it was 1.42 µM (inactive); in the experiment on SK-MEL-2, 4.58 µM (inactive); in the experiment with MDA-MB-231, 17.7 µM (inactive); in the experiment with SK-MEL-28, 5.82 µM (inactive). The GI50 with OVCAR-5 was 11 µM (inactive); in the experiment with NCI-H226, 8.3 µM (inactive); in the experiment with UACC-257 it was 5.13 µM (inactive); with ACHN, 10.8 µM (inactive); in the experiment on SK-MEL-5, 3.38 µM (inactive); in the experiment on RXF 393 it was 4.18 µM (inactive). Also, the GI50 is 4.86 µM (inactive) in the experiment with DU-145; 5.86 µM (inactive) in the experiment on SNB-19; 2.57 µM (inactive) with K562; 3.45 µM (inactive) in the experiment with MCF7; 5.35 µM (inactive) in the experiment with LOX IMVI; 3.15 µM (inactive) in the experiment on KM12. The GI50 with TK-10 was 12.4 µM (inactive); in the experiment with OVCAR-8, 7.48 µM (inactive).

For `CN(C)CCCCN1c2ccccc2Sc2cc(N=[N+]=[N-])ccc21`, the GI50 in the experiment with Hs-578T was 3.03 µM (inactive); with SW-620, 1.87 µM (inactive); in the experiment with MDA-MB-435 it was 1.67 µM (inactive); with SK-MEL-2, 1.97 µM (inactive); with MDA-MB-231, 1.71 µM (inactive); in the experiment with SK-MEL-28, 1.82 µM (inactive). The GI50 is 1.89 µM (inactive) with OVCAR-5; 3.28 µM (inactive) in the experiment with NCI-H226; 1.83 µM (inactive) with UACC-257; 1.99 µM (inactive) in the experiment with ACHN; 1.73 µM (inactive) with SK-MEL-5; 3.3 µM (inactive) with RXF 393. Further, the GI50 in the experiment on DU-145 was 2.1 µM (inactive); with SNB-19, 5.75 µM (inactive); with K562 it was 1.88 µM (inactive); with MCF7, 1.85 µM (inactive); in the experiment on LOX IMVI, 1.56 µM (inactive); with KM12 it was 1.73 µM (inactive). In addition, the GI50 in the experiment on TK-10 is 2.02 µM (inactive); in the experiment with OVCAR-8, 1.69 µM (inactive).

In the case of `CCOC(=O)c1c(N2CCN(C)CC2)[nH]c(=O)c(C(c2c(Cl)cccc2Cl)c2c(O)c(C(=O)OCC)c(N3CCN(C)CC3)[nH]c2=O)c1O`, the GI50 in the experiment with Hs-578T is 33.8 µM (inactive); with SW-620, 31.8 µM (inactive); in the experiment on MDA-MB-435 it was 25.8 µM (inactive); with SK-MEL-2 it was 26 µM (inactive); with MDA-MB-231, 25.5 µM (inactive); in the experiment on SK-MEL-28, 17.9 µM (inactive). For the same compound, the GI50 in the experiment on OVCAR-5 is 43 µM (inactive); in the experiment with NCI-H226, 28.6 µM (inactive); in the experiment with UACC-257, 21.3 µM (inactive); in the experiment on ACHN, 20.7 µM (inactive); in the experiment on SK-MEL-5 it was 20.7 µM (inactive); with RXF 393, 18.2 µM (inactive). Moreover, the GI50 is 17.8 µM (inactive) with DU-145; 20.4 µM (inactive) in the experiment on SNB-19; 25.8 µM (inactive) in the experiment with K562; 29.5 µM (inactive) with MCF7; 34.5 µM (inactive) in the experiment on LOX IMVI; 23.5 µM (inactive) in the experiment on KM12. In addition, the GI50 in the experiment on TK-10 is 30.5 µM (inactive); in the experiment on OVCAR-8, 22 µM (inactive).

On to `O=C1c2ccccc2C(=O)N1[C@@H](Cc1ccccc1)C(=O)n1cccc1CO`, for which the GI50 in the experiment on Hs-578T, in the experiment with SW-620, with MDA-MB-435, in the experiment on SK-MEL-2, with MDA-MB-231 and in the experiment with SK-MEL-28 was > 100 µM (inactive) in each case. Moreover, the GI50 in the experiment with OVCAR-5 is > 100 µM (inactive); in the experiment with NCI-H226 it was > 100 µM (inactive); in the experiment with UACC-257, > 100 µM (inactive); in the experiment on ACHN it was > 100 µM (inactive); with SK-MEL-5 it was > 100 µM (inactive); in the experiment with RXF 393, 1.02 µM (active). The GI50 in the experiment on DU-145, with SNB-19, with K562, in the experiment with MCF7, with LOX IMVI and in the experiment with KM12 was > 100 µM (inactive) each time. In addition, the GI50 with TK-10 and with OVCAR-8 was > 100 µM (inactive) throughout.

As to `O=C1C[C@H](Sc2ccccc2)C2(OCCO2)[C@H]2ON3CCC[C@@H]3[C@@H]12`, the GI50 with Hs-578T is 3.73 µM (inactive); with SW-620, 0.723 µM (active); in the experiment with MDA-MB-435, 1.67 µM (inactive); with SK-MEL-2, 3.75 µM (inactive); with MDA-MB-231, 3.33 µM (inactive); with SK-MEL-28 it was 2.49 µM (inactive). In addition, the GI50 in the experiment on OVCAR-5 is 3.01 µM (inactive); in the experiment on NCI-H226, 8.22 µM (inactive); with UACC-257 it was 2.72 µM (inactive); with ACHN, 2.1 µM (inactive); in the experiment with SK-MEL-5 it was 7.23 µM (inactive); in the experiment on RXF 393, 1.69 µM (inactive). Further, the GI50 with DU-145 is 2.61 µM (inactive); with SNB-19, 5.18 µM (inactive); in the experiment on K562, 1.71 µM (inactive); in the experiment with MCF7, 1.12 µM (inactive); in the experiment with LOX IMVI, 1.09 µM (active); in the experiment on KM12, 1.36 µM (inactive). In addition, the GI50 in the experiment on TK-10 is 3.61 µM (inactive); with OVCAR-8 it was 0.918 µM (active).

`CC1=CC(=O)/C(=C/NC(=S)Nc2ccccc2)C(=O)O1`: the GI50 in the experiment on Hs-578T, in the experiment with SW-620, with MDA-MB-435, in the experiment with SK-MEL-2, in the experiment with MDA-MB-231 and with OVCAR-5 was > 100 µM (inactive) in each case. Further, the GI50 in the experiment on NCI-H226 was > 100 µM (inactive); in the experiment with UACC-257, > 100 µM (inactive); in the experiment on ACHN, > 100 µM (inactive); in the experiment with SK-MEL-5 it was > 100 µM (inactive); in the experiment with RXF 393 it was 40.7 µM (inactive); in the experiment on DU-145, > 100 µM (inactive). Besides, the GI50 in the experiment on SNB-19, in the experiment with K562, in the experiment with MCF7, in the experiment on LOX IMVI, with KM12 and in the experiment with TK-10 was > 100 µM (inactive) throughout. Also, the GI50 in the experiment on OVCAR-8 was > 100 µM (inactive).

As to `CC(=O)OC[C@@]12C[C@H]3C(=O)C(C)(C)C[C@H]3[C@]1(C)[C@@H](OC(C)=O)[C@]1(O)[C@H]([C@@H](OC(=O)c3ccccc3)[C@@H](C)[C@H]1OC(C)=O)[C@H]2OC(C)=O`, the GI50 in the experiment with Hs-578T, with SW-620, in the experiment with MDA-MB-435, with SK-MEL-2, with MDA-MB-231 and in the experiment on OVCAR-5 was > 20 µM (inactive) throughout. For the same compound, the GI50 in the experiment with NCI-H226, in the experiment with UACC-257, in the experiment on ACHN, in the experiment with SK-MEL-5, in the experiment on RXF 393 and with DU-145 was > 20 µM (inactive) each time. For the same compound, the GI50 is > 20 µM (inactive) with SNB-19; 6.87 µM (inactive) in the experiment with K562; > 20 µM (inactive) in the experiment with MCF7; > 20 µM (inactive) with LOX IMVI; > 20 µM (inactive) with KM12; > 20 µM (inactive) in the experiment on TK-10. Also, the GI50 in the experiment on OVCAR-8 was > 20 µM (inactive).

On to `CC1(C)C2CC(O)C1CCC2=O` (stereo unspecified), for which the GI50 with Hs-578T, with MDA-MB-435, in the experiment with SK-MEL-2, with MDA-MB-231, in the experiment on SK-MEL-28 and with OVCAR-5 was > 100 µM (inactive) in each case. In addition, the GI50 in the experiment with NCI-H226, in the experiment with UACC-257, in the experiment with ACHN, in the experiment with SK-MEL-5, in the experiment with RXF 393 and in the experiment with DU-145 was > 100 µM (inactive) in each case. The GI50 in the experiment on SNB-19, in the experiment with K562, with MCF7, in the experiment with LOX IMVI, in the experiment with KM12 and with TK-10 was > 100 µM (inactive) each time. The GI50 in the experiment with OVCAR-8 was > 100 µM (inactive).

For the compound `Cc1ccccc1C1CC(=O)CC(c2ccccc2C)C12C(=O)NC(=S)NC2=O` (stereo unspecified), the GI50 in the experiment on Hs-578T is 29.1 µM (inactive); in the experiment on SW-620 it was 28.5 µM (inactive); in the experiment with MDA-MB-435, 20 µM (inactive); in the experiment with SK-MEL-2, 13.4 µM (inactive); in the experiment on MDA-MB-231, 31.3 µM (inactive); in the experiment with SK-MEL-28, 20.2 µM (inactive). For the same compound, the GI50 was 50.1 µM (inactive) in the experiment on OVCAR-5; 20 µM (inactive) in the experiment on NCI-H226; 22 µM (inactive) in the experiment with UACC-257; 18.4 µM (inactive) in the experiment on ACHN; 17.2 µM (inactive) with SK-MEL-5; 19.6 µM (inactive) with RXF 393. Besides, the GI50 in the experiment with DU-145 is 41.7 µM (inactive); in the experiment with SNB-19 it was 43.4 µM (inactive); in the experiment with K562, 39.5 µM (inactive); in the experiment with MCF7, 32 µM (inactive); in the experiment on LOX IMVI, 17.2 µM (inactive); in the experiment on KM12, 22.1 µM (inactive). Further, the GI50 with TK-10 was 39.4 µM (inactive).
